Broadly, the EC50 is the midpoint of the concentration-response curve. As a reminder, the Ki is a dissociation constant, usually derived from enzyme kinetics or from competition with a known ligand.

Test [1] addresses T1, SSTR3 (Homo sapiens, UniProt P32745). Nature of the test: SSTR3 functional antagonist assay: cAMP production with FSK + SS-14 in SSTR3 stable CHO cells. Details: […]. In kind it is cell-based, human or mouse. The conditions noted are these: […] FSK + 100 nM SS-14. On the procedure:
The effects of compounds that bind to human and murine SSTR3 with various affinities on the functional activity of the receptor were assessed by measuring cAMP production in the presence of Forskolin (FSK) along or FSK plus SS-14 in SSTR3 expressing CHO cells. FSK acts to induce cAMP production in these cells by activating adenylate cyclases, whereas SS-14 suppresses cAMP production in the SSTR3 stable cells by binding to SSTR3 and the subsequent inhibition of adenylate cyclases via an alpha subunit of GTP-binding protein (Gαi).
The amount of cAMP produced during the incubation was also quantified with the Lance cAMP assay. […] The % Inhibition of each compound was calculated using the following formula:
% Inhibition=[1−(unknown cAMP/FSK+SS-14 cAMP)]×100
(Changes in cAMP serve as a functional read-out for many G protein-coupled receptors.)

Test [2] has as its target T1, SSTR3. Kind of test: SSTR3 receptor-ligand binding assay, (3-125I-Tyr11)-SRIF-14 radioligand, CHO-K1 cell membranes. Details: expressed in transfected cells; membranes used. The conditions noted are these: cloned human SSTR3, CHO-K1 membranes, 0.1 nM radioligand. On the procedure: The receptor-ligand binding assays of all 5 subtype of SSTRs were performed with membranes isolated from Chinese hamster ovary (CHO)—K1 cells stably expressing the cloned human somatostatin receptors in 96-well format as previous reported.
The stable cell lines for SSTR1-SSTR5 were developed by stably transfecting with DNA for all five SSTRs using Lipofectamine. […] The assay buffer consisted of 50 mM TrisHCl (pH 7.8) with 1 mM EGTA, 5 mM MgCl2, leupeptin (10 μg/mL), pepstatin (10 μg/mL), bacitracin (200 μg/mL), and aprotinin (0.5 μg/mL). CHO—K1 cell membranes, radiolabeled somatostatin, and unlabeled test compounds were resuspended or diluted in this assay buffer. Unlabeled test compounds were examined over a range of concentrations from 0.01 nM to 10,000 nM.

T1 sequence (P32745 whole entry): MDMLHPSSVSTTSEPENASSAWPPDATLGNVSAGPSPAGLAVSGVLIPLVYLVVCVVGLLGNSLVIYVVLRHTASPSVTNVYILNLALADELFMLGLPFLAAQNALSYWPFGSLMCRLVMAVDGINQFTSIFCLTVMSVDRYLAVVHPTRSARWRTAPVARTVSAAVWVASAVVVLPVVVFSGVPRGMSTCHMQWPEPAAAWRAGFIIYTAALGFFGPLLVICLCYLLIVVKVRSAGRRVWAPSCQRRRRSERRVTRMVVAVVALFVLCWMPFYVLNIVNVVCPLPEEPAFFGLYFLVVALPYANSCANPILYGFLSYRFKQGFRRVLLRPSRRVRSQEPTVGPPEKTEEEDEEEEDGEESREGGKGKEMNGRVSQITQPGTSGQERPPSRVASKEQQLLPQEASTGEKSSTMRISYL

For `CCn1nc(C2(c3noc(COC)n3)N[C@@H](c3nc(-c4ccc(F)cn4)c[nH]3)Cc3c2[nH]c2ccccc32)oc1=O` (single isomer, unassigned) [Example 40], the EC50 in test [1] worked out at 3 nM. On the same count and under the same terms, to `CCn1nc(C2(c3noc(COC)n3)N[C@@H](c3nc(-c4ccc(F)cn4)c[nH]3)Cc3c2[nH]c2ccccc32)oc1=O` (single isomer, unassigned) [Example 41] belongs 19 nM; to `CCn1nc(C2(c3ccc(C#N)cc3)N[C@@H](c3nc(-c4ccc(F)cn4)c[nH]3)Cc3c2[nH]c2ccccc32)oc1=O` (single isomer, unassigned) [Example 16], 11 nM; to `CCn1nnc(C2(c3nn(C)c(=O)o3)N[C@@H](c3nc(-c4ccc(F)cn4)c[nH]3)Cc3c2[nH]c2ccccc32)n1` (single isomer, unassigned) [Example 47], 74.4 nM. Turning to `CCn1cc(C2(c3nn(C)c(=O)o3)N[C@@H](c3nc(-c4ccc(F)cc4)c[nH]3)Cc3c2[nH]c2ccccc32)cn1` (mixture of isomers) [Example 36], the Ki in test [2] was determined as 1.1 nM. In test [1], the EC50 is 1.9 nM. `CCn1nc(C2(c3ccc(C#N)cc3)N[C@@H](c3nc(-c4ccc(F)cn4)c[nH]3)Cc3c2[nH]c2ccccc32)oc1=O` (single isomer, unassigned) [Example 17]: the EC50 in test [1] was found to be 25.6 nM. Consider `CCn1nc(C2(c3nnn(C)n3)N[C@@H](c3nc(-c4ccc(F)cn4)c[nH]3)Cc3c2[nH]c2ccccc32)oc1=O` (single isomer, unassigned) [Example 48], for which the EC50 in test [1] turned out to be 63.4 nM.

Consider `Cn1cc(C2(c3nn(C)c(=O)o3)N[C@@H](c3nc(-c4ccc(F)cc4)c[nH]3)Cc3c2[nH]c2ccccc32)cn1` (single isomer, unassigned) [Example 23], for which the affinity in test [2] corresponds to a Ki of 1.2 nM. For the same compound, the half-maximal effective concentration (EC50) in test [1] was 2.3 nM. In the case of `Cn1cc(C2(c3nn(C)c(=O)o3)N[C@@H](c3nc(-c4ccc(F)cc4)c[nH]3)Cc3c2[nH]c2ccccc32)cn1` (single isomer, unassigned) [Example 22], in test [1], the EC50 stood at 6.1 nM.

`Oc1nnc(C2(c3cnn(C4CC4)c3)N[C@@H](c3nc(-c4ccc(F)cn4)c[nH]3)Cc3c2[nH]c2ccccc32)o1` (single isomer, unassigned) [Example 37]: the EC50 in test [1] came out at 0.6 nM.

Turning to `Cc1nc(C2(c3nnc(N)o3)NC(c3nc(-c4ccc(F)cc4)c[nH]3)Cc3c2[nH]c2ccccc32)no1` (mixture of isomers) [Example 56], the EC50 in test [1] turned out to be 17.8 nM. In test [2], `N#Cc1ccc(C2(c3nnc(O)o3)N[C@@H](c3nc(-c4ccc(F)cc4)c[nH]3)Cc3c2[nH]c2ccccc32)cc1` (mixture of isomers) [Example 13] yielded a Ki of 9.2 nM. Besides, in test [1], the EC50 came out at 18.9 nM. As to `Cn1nc(C2(c3ccccc3)N[C@@H](c3nc(-c4ccc(F)cc4)c[nH]3)Cc3c2[nH]c2ccccc32)oc1=O` (single isomer, unassigned) [Example 1], in test [2], the affinity corresponds to a Ki of 0.8 nM. Further, in test [1], the half-maximal effective concentration (EC50) was 3.8 nM. Taken in the same sequence, the figures for `Cn1nc(C2(c3ccc(C#N)cc3)NC(c3nc(-c4ccc(F)cc4)c[nH]3)Cc3c2[nH]c2ccccc32)oc1=O` (single isomer, unassigned) [Example 15] were 2 nM and 30.5 nM. With `Cc1nc(C2(c3nnc(O)o3)NC(c3nc(-c4ccc(F)cc4)c[nH]3)Cc3c2[nH]c2ccccc32)no1` (mixture of isomers) [Example 38], the EC50 in test [1] was 24.6 nM. For `CCn1cc(C2(c3nnc(O)o3)NC(c3nc(-c4ccc(F)cc4)c[nH]3)Cc3c2[nH]c2ccccc32)cn1` (mixture of isomers) [Example 35], the EC50 in test [1] worked out at 1.8 nM. Regarding `Cn1cc(C2(c3nnc(O)o3)N[C@@H](c3nc(-c4ccc(F)cc4)c[nH]3)Cc3c2[nH]c2ccccc32)cn1` (single isomer, unassigned) [Example 19], the EC50 in test [1] is 47.5 nM. As for `Cn1nc(C2(c3ccc(C#N)cc3)NC(c3nc(-c4ccc(F)cc4)c[nH]3)Cc3c2[nH]c2ccccc32)oc1=O` (single isomer, unassigned) [Example 14], the affinity in test [2] corresponds to a Ki of 1.2 nM. For the same compound, in test [1], the EC50 came out at 5.4 nM.

Take `COCc1nc(C2(c3nn(C)c(=O)o3)N[C@@H](c3nc(-c4ccc(F)cn4)c[nH]3)Cc3c2[nH]c2ccccc32)no1` (single isomer, unassigned) [Example 42]: the EC50 in test [1] worked out at 3.2 nM.

`Oc1nnc(C2(c3ccccc3)N[C@@H](c3nc(-c4ccc(F)cc4)c[nH]3)Cc3c2[nH]c2ccccc32)o1` (mixture of isomers) [Example 10] returned a Ki in test [2] of 3.3 nM. The EC50 in test [1] came out at 10.7 nM. The like results for `Cn1nc(C2(c3ccccc3)NC(c3nc(-c4ccc(F)cn4)c[nH]3)Cc3c2[nH]c2ccccc32)oc1=O` (single isomer, unassigned) [Example 12] were, in that order, 1.2 nM and 5.9 nM. `Cn1nc(C2(c3ccccc3)NC(c3nc(-c4ccc(F)cn4)c[nH]3)Cc3c2[nH]c2ccccc32)oc1=O` (single isomer, unassigned) [Example 11] came in with a Ki in test [2] of 52.2 nM. Further, the EC50 in test [1] was determined as 74.1 nM. Consider `Cn1nnc(C2(c3nnc(O)o3)N[C@@H](c3nc(-c4ccc(F)cn4)c[nH]3)Cc3c2[nH]c2ccccc32)n1` (single isomer, unassigned) [Example 43], for which the EC50 in test [1] came out at 1070 nM. Still for that read-out and setting: to `Cn1cc(C2(c3nnc(O)o3)N[C@@H](c3nc(-c4ccc(F)cn4)c[nH]3)Cc3c2[nH]c2ccccc32)cn1` (single isomer, unassigned) [Example 20] belongs 680 nM. The same measure, in the same setting: next, `Cn1cc(C2(c3nnc(O)o3)N[C@@H](c3nc(-c4ccc(F)cc4)c[nH]3)Cc3c2[nH]c2ccccc32)cn1` (single isomer, unassigned) [Example 18]: 1.1 nM. Consider `CCn1nnc(C2(c3nnc(O)o3)N[C@@H](c3nc(-c4ccc(F)cn4)c[nH]3)Cc3c2[nH]c2ccccc32)n1` (single isomer, unassigned) [Example 44], for which the EC50 in test [1] is 2000 nM. In the case of `Cn1nc(C2(c3ccccc3)N[C@@H](c3nc(-c4ccc(F)cc4)c[nH]3)Cc3c2[nH]c2ccccc32)oc1=O` (single isomer, unassigned) [Example 2], the inhibition constant (Ki) in test [2] is 31.4 nM. For the same compound, the EC50 in test [1] was determined as 29.1 nM. As to `CCn1nnc(C2(c3nn(C)c(=O)o3)N[C@@H](c3nc(-c4ccc(F)cn4)c[nH]3)Cc3c2[nH]c2ccccc32)n1` (single isomer, unassigned) [Example 46], in test [1], the EC50 is 21.4 nM. For `CSc1nnc(C2(c3cnn(C)c3)N[C@@H](c3nc(-c4ccc(F)cc4)c[nH]3)Cc3c2[nH]c2ccccc32)o1` (some centres unmarked) [Example 58], the affinity in test [2] corresponds to a Ki of 0.9 nM. The EC50 in test [1] came out at 1.9 nM. Taken in the same sequence, the figures for `CCn1nc(C2(c3noc(C)n3)N[C@@H](c3nc(-c4ccc(F)cn4)c[nH]3)Cc3c2[nH]c2ccccc32)oc1=O` (single isomer, unassigned) [Example 8] were 23.7 nM and 18 nM. Taken in the same sequence, the figures for `CCn1nc(C2(c3noc(C)n3)N[C@@H](c3nc(-c4ccc(F)cn4)c[nH]3)Cc3c2[nH]c2ccccc32)oc1=O` (single isomer, unassigned) [Example 9] were 4.2 nM and 2.6 nM. `CSc1nnc(C2(c3cnn(C)c3)NC(c3nc(-c4ccc(F)cn4)c[nH]3)Cc3c2[nH]c2ccccc32)o1` (mixture of isomers) [Example 57]: the EC50 in test [1] is 0.8 nM. With `Cn1nc(C2(c3cnn(C4CC4)c3)N[C@@H](c3nc(-c4ccc(F)cn4)c[nH]3)Cc3c2[nH]c2ccccc32)oc1=O` (single isomer, unassigned) [Example 59], the EC50 in test [1] amounted to 0.8 nM. Still for that read-out and setting: next, `Cn1cc(C2(c3nnc(N)o3)N[C@@H](c3nc(-c4ccc(F)cc4)c[nH]3)Cc3c2[nH]c2ccccc32)cn1` (single isomer, unassigned) [Example 53]: 0.2 nM. On the same count and under the same terms, next, `CCn1nnc(C2(c3nnc(O)o3)N[C@@H](c3nc(-c4ccc(F)cn4)c[nH]3)Cc3c2[nH]c2ccccc32)n1` (single isomer, unassigned) [Example 45]: 32.6 nM.

In test [2], `CCOC(=O)Cn1nc(C2(c3cnn(CC)c3)N[C@@H](c3nc(-c4ccc(F)cn4)c[nH]3)Cc3c2[nH]c2ccccc32)oc1=O` (single isomer, unassigned) [Example 34] gave a Ki of 0.9 nM. In addition, the EC50 in test [1] is 0.5 nM. The like results for `Cn1cc(C2(c3nnc(N)o3)N[C@@H](c3nc(-c4ccc(F)cc4)c[nH]3)Cc3c2[nH]c2ccccc32)cn1` (single isomer, unassigned) [Example 52] were, in that order, 13.3 nM and 8 nM.

For `COCc1nc(C2(c3nnc(O)o3)N[C@@H](c3nc(-c4ccc(F)cn4)c[nH]3)Cc3c2[nH]c2ccccc32)no1` (single isomer, unassigned) [Example 39], the EC50 in test [1] came to 12.5 nM.

Source of the values: patent publication US20100184799A1, “OXADIAZOLE BETA CARBOLINE DERIVATIVES AS ANTIDIABETIC COMPOUNDS” (priority 2009, published 2010).
